Source: patent publication US20110190365A1, “Insecticidal 4-phenyl-1H-pyrazoles” (Bayer Crop Science AG, priority 2008, published 2011)

Experiment: log P by HPLC on a reversed-phase column (C18), EEC Directive 79/831 Annex V.A8
Type: physicochemical
Conditions: for chromatographic logP: read-out: log P (HCOOH)
Method: The stated log P values were determined in accordance with EEC Directive 79/831 Annex V.A8 by HPLC (High Performance Liquid Chromatography) using a reversed-phase column (C18).

[1] = HPLC, reversed-phase C18, mobile phase with formic acid
[2] = HCOOH, Table 4, compounds of formula I-A-Q4

Compound	log P (HCOOH) (HCOOH)	other results
CC(NC(=O)c1ccc(-n2nc(C(F)(F)F)c(-c3ccc(Br)cc3)c2N)cc1)c1ccccn1 (centres unmarked) [I-A-Q2-192]	I-A-Q2-192: log P (HCOOH): 2.89	
Cc1nn(-c2ccc(-n3cncn3)c(C#N)c2)c(N)c1-c1ccc(Cl)c(Cl)c1 [I-A-Q1-025]		log P (HCOOH) [1]: I-A-Q1-025: log P (HCOOH): 3.02
Cc1cc(-n2nc(C(F)(F)F)c(-c3cc(Cl)cc(Cl)c3)c2N)ccc1C(=O)NCCN1CCOCC1 [I-A-Q2-264]	I-A-Q2-264: log P (HCOOH): 1.99	
Cc1ncc(CNC(=O)c2ccc(-n3nc(C(F)(F)F)c(-c4cc(Cl)cc(Cl)c4)c3N)cc2C)c(N)n1 [I-A-Q2-053]	I-A-Q2-053: log P (HCOOH): 2.04	
Cc1nn(-c2ccc(Cl)cn2)c(N)c1-c1ccc(F)cc1Cl [I-A-Q4-037]		log P (HCOOH) [2]: I-A-Q4-037: log P (HCOOH): 4.05
Cc1cc(-n2nc(C(F)(F)F)c(-c3cc(Cl)cc(Cl)c3)c2N)ccc1C(=O)NC(C)C1(Cl)CC1 (centres unmarked) [I-A-Q2-261]	I-A-Q2-261: log P (HCOOH): 4.76	
Nc1c(-c2cc(Cl)cc(Cl)c2)c(C(F)(F)F)nn1-c1ccc(C(=O)O)cn1 [I-A-Q4-064]		log P (HCOOH) [2]: I-A-Q4-064: log P (HCOOH): 4.23
Cc1cc(-n2nc(C(F)(F)F)c(Cl)c2N)ccc1C(=O)NCc1ccccn1 [XI-A-091]	XI-A-091: log P (HCOOH): 1.94	
Cc1cc(-n2nc(C(F)(F)F)c(-c3cc(Cl)cc(Cl)c3)c2I)ccc1C(=O)NC(C)C(F)(F)F (centres unmarked) [I-A-Q2-026]	I-A-Q2-026: log P (HCOOH): 5.44	
Cc1cc(-n2nc(C(F)(F)F)c(-c3cc(Cl)cc(Cl)c3)c2N)ccc1C(=O)NCC1CCCCC1 [I-A-Q2-263]	I-A-Q2-263: log P (HCOOH): 5.08	
Cc1nc(C(F)(F)F)nn1-c1ccc(-n2nc(C(F)(F)F)c(-c3cc(Cl)cc(Cl)c3)c2N)cc1C#N [I-A-Q1-086]		log P (HCOOH) [1]: I-A-Q1-086: log P (HCOOH): 4.57
Cc1cc(-n2nc(C(F)(F)F)c(-c3cc(Cl)cc(Cl)c3)c2Br)ccc1C(=O)NCc1ccccn1 [I-A-Q2-023]	I-A-Q2-023: log P (HCOOH): 4.91	
CC(NC(=O)c1ccc(-n2nc(C(F)(F)F)c(-c3cc(Cl)cc(Cl)c3)c2N)cc1)c1ccccn1 (centres unmarked) [I-A-Q2-147]	I-A-Q2-147: log P (HCOOH): 3.47	
CCC(C)C(NC(=O)c1ccc(-n2nc(C(F)(F)F)c(-c3cc(Cl)cc(Cl)c3)c2N)cc1)C(F)(F)F (centres unmarked) [I-A-Q2-072]	I-A-Q2-072: log P (HCOOH): 5.22	
COC(CNC(=O)c1ccc(-n2nc(C(F)(F)F)c(-c3cc(Cl)cc(Cl)c3)c2N)cc1C)OC [I-A-Q2-224]	I-A-Q2-224: log P (HCOOH): 3.78	
Nc1c(-c2ccc(Cl)c(F)c2)c(C(F)(F)F)nn1-c1ccc(C(=O)NCc2ccccn2)cc1 [I-A-Q2-168]	I-A-Q2-168: log P (HCOOH): 2.61	
COc1cnn(-c2ccc(-n3nc(C(F)(F)F)c(-c4cc(Cl)cc(Cl)c4)c3N)cc2C#N)c1 [I-A-Q1-085]		log P (HCOOH) [1]: I-A-Q1-085: log P (HCOOH): 4.45
Cc1cc(-n2nc(C(F)(F)F)c(-c3cccc(Br)c3)c2N)ccc1C(=O)NCC(F)(F)C(F)F [I-A-Q2-314]	I-A-Q2-314: log P (HCOOH): 3.65	
COc1cc(OC)nc(CNC(=O)c2ccc(-n3nc(C(F)(F)F)c(-c4cc(Cl)cc(Cl)c4)c3N)cc2C)n1 [I-A-Q2-255]	I-A-Q2-255: log P (HCOOH): 4.40	
Cc1cc(-n2nc(C)c(-c3ccc(F)cc3Cl)c2N)ccc1C(=O)NCC(F)(F)C(F)F [I-A-Q2-327]	I-A-Q2-327: log P (HCOOH): 2.73	
Cc1cc(-n2nc(C(F)(F)F)c(-c3cc(Cl)cc(Cl)c3)c2N)ccc1C(=O)NC(C)(C)C [I-A-Q2-221]	I-A-Q2-221: log P (HCOOH): 4.51	
Cc1cc(-n2nc(C(F)(F)Cl)c(-c3cc(Cl)cc(C(F)(F)F)c3)c2N)ccc1C(=O)NCC(F)(F)C(F)F [I-A-Q2-322]	I-A-Q2-322: log P (HCOOH): 4.34	
CCCNC(=O)c1ccc(-n2nc(C(F)(F)F)c(-c3cc(Cl)cc(Cl)c3)c2N)cc1 [I-A-Q2-151]	I-A-Q2-151: log P (HCOOH): 4.06	
CSCC(C)NC(=O)c1ccc(-n2nc(C(F)(F)F)c(-c3cc(Cl)cc(Cl)c3)c2N)cc1C (centres unmarked) [I-A-Q2-279]	I-A-Q2-279: log P (HCOOH): 4.43	
Nc1c(-c2cc(Cl)cc(Cl)c2)c(C(F)(F)F)nn1-c1ccc(C(=O)NCc2ccccn2)cc1 [I-A-Q2-134]	I-A-Q2-134: log P (HCOOH): 3.11	
Cc1cc(-n2nc(C(F)(F)c3ccc(C(F)(F)F)cc3)c(-c3cc(Cl)cc(C(F)(F)F)c3)c2N)ccc1C(=O)NCC(F)(F)C(F)F [I-A-Q2-289]	I-A-Q2-289: log P (HCOOH): 4.95	
Cc1cc(-n2nc(C(F)(F)C(F)(F)F)c(-c3cc(C(F)(F)F)cc(C(F)(F)F)c3)c2N)ccc1C(=O)NCC(F)(F)C(F)F [I-A-Q2-343]	I-A-Q2-343: log P (HCOOH): 4.57	
Nc1c(-c2ccc(Cl)c(Cl)c2)c(C(F)(F)F)nn1-c1ccc(Cl)cn1 [I-A-Q4-043]		log P (HCOOH) [2]: I-A-Q4-043: log P (HCOOH): 5.44

Compound	log P (HCOOH) (HCOOH)	other results
Cc1ccc(-c2c(C(F)(F)F)nn(-c3ccc(Cl)cn3)c2N)cc1 [I-A-Q4-055]		log P (HCOOH) [2]: I-A-Q4-055: log P (HCOOH): 4.83
Cc1cc(-n2nc(C(F)(F)F)c(-c3cc(Cl)cc(Cl)c3)c2[S+](C)[O-])ccc1C(=O)NCc1ccccn1 (centres unmarked) [I-A-Q2-063, 4-[4-(3,5-Dichlorophenyl)-5-methanesulphinyl-3-trifluoromethylpyrazol-1-yl]-2-methyl-N-pyridin-2-ylmethylbenzamide]	I-A-Q2-063: log P (HCOOH): 3.11	chromatographic logP [1]: 3.11
Cc1cc(-n2nc(C(F)(F)F)c(-c3cc(C(F)(F)F)cc(C(F)(F)F)c3)c2N)ccc1C(=O)NCc1ccccn1 [I-A-Q2-360]	I-A-Q2-360: log P (HCOOH): 3.47	
Nc1c(-c2ccc(Cl)cc2)c(C(F)(F)C(F)(F)F)nn1-c1ccc(Cl)cn1 [I-A-Q4-058]		log P (HCOOH) [2]: I-A-Q4-058: log P (HCOOH): 5.44
Nc1c(-c2ccc(Cl)cc2)c(C(F)(F)F)nn1-c1ccc(C(=O)O)cc1 [I-A-Q4-088]		log P (HCOOH) [2]: I-A-Q4-088: log P (HCOOH): 3.28
COC(=O)c1ccc(NN)cc1C [VII-A-008, Methyl 4-hydrazino-2-methylbenzoate]		chromatographic logP [1]: 0.4
COC(C)c1nn(-c2ccc(C(=O)NCC(F)(F)C(F)F)c(C)c2)c(N)c1-c1cc(Cl)cc(C(F)(F)F)c1 (centres unmarked) [I-A-Q2-291]	I-A-Q2-291: log P (HCOOH): 3.84	
Nc1c(-c2ccc(Cl)c(Cl)c2)c(C(F)(F)F)nn1-c1ccc(C(=O)O)cc1 [I-A-Q4-089]		log P (HCOOH) [2]: I-A-Q4-089: log P (HCOOH): 3.69
CCOC(=O)c1ccc(-n2nc(C(F)(F)F)c(I)c2N)cc1 [XI-A-044]	XI-A-044: log P (HCOOH): 3.66	
Nc1c(-c2ccc(Cl)cc2)c(C(F)(F)F)nn1-c1ccc(C(=O)NCC(F)(F)F)cc1 [I-A-Q2-162]	I-A-Q2-162: log P (HCOOH): 3.51	
COC(=O)c1ccc(-n2nc(C(F)(F)F)c(-c3cc(Cl)cc(Cl)c3)c2N)cc1Cl [I-A-Q4-104]		log P (HCOOH) [2]: I-A-Q4-104: log P (HCOOH): 5.07
Cc1cc(-n2nc(C(F)(F)F)c(-c3cc(Cl)cc(Cl)c3)c2N)ccc1C(=O)NCc1cc(F)ccc1F [I-A-Q2-046]	I-A-Q2-046: log P (HCOOH): 4.51	
N#Cc1cc(-n2nc(C(F)(F)F)cc2N)ccc1-n1cncn1 [XI-A-079]	XI-A-079: log P (HCOOH): 2.80	
CCCC(NC(=O)c1ccc(-n2nc(C(F)(F)F)c(-c3cc(Cl)cc(Cl)c3)c2N)cc1C)C(F)(F)F (centres unmarked) [I-A-Q2-201]	I-A-Q2-201: log P (HCOOH): 5.11	
Cc1cc(-n2nc(C(F)(F)F)c(-c3cc(Cl)cc(Cl)c3)c2N)ccc1C(=O)NCC(F)(F)Br [I-A-Q2-268]	I-A-Q2-268: log P (HCOOH): 4.45	
Nc1c(-c2cc(Cl)cc(Cl)c2)c(C(F)(F)F)nn1-c1ccc(C(=O)NCC(F)(F)F)cc1 [I-A-Q2-138]	I-A-Q2-138: log P (HCOOH): 4.21	
Cc1nn(-c2ccc(Cl)cn2)c(N)c1-c1ccc(Cl)cc1 [I-A-Q4-039]		log P (HCOOH) [2]: I-A-Q4-039: log P (HCOOH): 4.40
Cc1cc(-n2nc(C(F)(F)F)c(-c3cc(F)cc(F)c3)c2N)ccc1C(=O)NCC(F)(F)C(F)F [I-A-Q2-315]	I-A-Q2-315: log P (HCOOH): 3.37	
Cc1cc(-n2nc(C(F)(F)F)c(-c3cc(Cl)cc(Cl)c3)c2N)ccc1C(=O)NCc1ccc(C(F)(F)F)cn1 [I-A-Q2-233]	I-A-Q2-233: log P (HCOOH): 4.40	
Cc1cc(-n2nc(C(F)(F)F)c(-c3cc(F)c(F)c(F)c3)c2N)ccc1C(=O)NCC(F)(F)C(F)F [I-A-Q2-316]	I-A-Q2-316: log P (HCOOH): 3.65	
C[S+]([O-])c1cc(-n2nc(C(F)(F)F)c(-c3cc(Cl)cc(Cl)c3)c2N)ccc1C(=O)NCc1ccccn1 (centres unmarked) [I-A-Q2-424]	I-A-Q2-424: log P (HCOOH): 2.75	
N#Cc1cc(N)ccc1-n1cncn1 [5-Amino-2-[1,2,4]triazol-1-ylbenzonitrile]		chromatographic logP [1]: 1.01
Nc1c(-c2cccc(F)c2)c(C(F)(F)F)nn1-c1ccc(C(=O)NCC(F)(F)F)cc1 [I-A-Q2-183]	I-A-Q2-183: log P (HCOOH): 3.11	
Nc1c(-c2cc(Cl)cc(Cl)c2)c(C(F)(F)F)nn1-c1ccc(Cl)cn1 [I-A-Q4-014]		log P (HCOOH) [2]: I-A-Q4-014: log P (HCOOH): 5.76
C#CCNC(=O)c1ccc(-n2nc(C(F)(F)F)c(-c3cc(Cl)cc(Cl)c3)c2N)cc1C [I-A-Q2-238]	I-A-Q2-238: log P (HCOOH): 3.78	
CC(NC(=O)c1ccc(-n2nc(C(F)(F)F)c(-c3cc(Cl)cc(Cl)c3)c2N)cc1)c1ccccc1 (centres unmarked) [I-A-Q2-150]	I-A-Q2-150: log P (HCOOH): 4.65	
Cc1cc(-n2nc(C(F)(F)F)cc2N)ccc1C(=O)NCc1ccccn1 [XI-A-089]	XI-A-089: log P (HCOOH): 2.45	
